Measurements published in PubChem BioAssay AID687005 (Broad Institute, 2013).
Inconclusive results are not listed. Calls of active or inactive are those of the source.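 Rule for the calls: active = Compounds that reduce signal, with fitted half-maximal dose at or under twice the top valid tested dose; inconclusive = Poor fit, or flat curve losing 30 to 70% of signal; inactive = Potency past limit, flat within 30%, or opposite direction.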

Assay: HEK293T cell cytotoxicity, dose response, cytotoxicity control, ATP luminescence, cherry-pick samples (AID 687005)
Settings: HEK293T viability, ATP luminescence (CellTiter-Glo), 48 h; at 23.5 µM (top of the series)
For `O=C(C[C@H]1CC[C@@H]2[C@H](COC[C@@H](O)CN2Cc2cccc(C(F)(F)F)c2)O1)NCc1ccc(Cl)cc1`, the activity change, negative = cytotoxicity was 16.8% (inactive). For `C[C@H](CO)N1C[C@H](C)[C@@H](CN(C)S(=O)(=O)c2ccc(Cl)cc2)Oc2c(NS(=O)(=O)c3ccc(F)cc3)cccc2C1=O`, the activity change, negative = cytotoxicity was -1.86% (inactive). For `Cc1noc(C)c1NC(=O)N(C)C[C@H]1Oc2ccc(NS(=O)(=O)c3cn(C)cn3)cc2CC(=O)N([C@H](C)CO)C[C@H]1C`, the activity change, negative = cytotoxicity was -32.1% (inactive). In the case of `O=C(NC1CCCCC1)N[C@H]1C=C[C@@H](CC(=O)N2CCOCC2)O[C@H]1CO`, the activity change, negative = cytotoxicity is reported as 14.2% (inactive). With `O=C(C[C@@H]1C[C@@H]2c3cc(NC(=O)Nc4ccc(F)cc4)ccc3O[C@@H]2[C@@H](CO)O1)NCC1CC1` the activity change, negative = cytotoxicity was 26.7% (inactive). For `Cc1noc(C)c1S(=O)(=O)Nc1ccc2c(c1)CC(=O)N([C@@H](C)CO)C[C@@H](C)[C@@H](CN(C)S(=O)(=O)c1cccs1)O2`, the activity change, negative = cytotoxicity was -16.9% (inactive). In the case of `Cc1cc(C(=O)Nc2ccc3c(c2)C(=O)N(C)[C@H]2CC[C@@H](CC(=O)N[C@@H](C)c4ccccc4)O[C@H]2CO3)no1`, the activity change, negative = cytotoxicity is reported as -36.7% (inactive).

Same assay, conditions: HEK293T viability, ATP luminescence (CellTiter-Glo), 48 h; at 26 µM (top of the series)
For `COc1ccc(C#Cc2ccc3c(c2)O[C@H](CN(C)C(C)=O)[C@@H](C)CN([C@@H](C)CO)S3(=O)=O)cc1`, the activity change, negative = cytotoxicity was -74% (inactive). In the case of `C[C@@H]1CCCCO[C@H](CN(C)C(=O)c2ccncc2)[C@H](C)CN([C@H](C)CO)C(=O)c2cc(NC(=O)CCC(F)(F)F)ccc2O1`, the activity change, negative = cytotoxicity is reported as -23.2% (inactive). With `COc1cccc(S(=O)(=O)Nc2ccc3c(c2)OC[C@@H](C)NC[C@H](C)[C@@H](OC)CN(C)C3=O)c1` the activity change, negative = cytotoxicity was -6.17% (inactive). For `CO[C@@H]1CN(C)C(=O)c2ccc(NC(=O)C3CC3)cc2OC[C@H](C)N(C(=O)c2ccncc2)C[C@H]1C`, the activity change, negative = cytotoxicity was -27.7% (inactive). For `C[C@@H](NC(=O)C[C@@H]1CC[C@H]2[C@@H](COC[C@@H](O)CN2Cc2cc(F)ccc2F)O1)c1ccccc1`, the activity change, negative = cytotoxicity was -19.7% (inactive). In the case of `C[C@H](CO)N1C[C@H](C)[C@H](CN(C)S(=O)(=O)c2cn(C)cn2)Oc2ncc(/C=C/c3ccccc3)cc2C1=O`, the activity change, negative = cytotoxicity is reported as 5.3% (inactive). In the case of `CO[C@@H]1CN(C)C(=O)c2ccc(NC(=O)NC(C)C)cc2OC[C@H](C)NC[C@@H]1C`, the activity change, negative = cytotoxicity is reported as -4.93% (inactive). With `C[C@H]1CN([C@@H](C)CO)S(=O)(=O)c2ccc(Br)cc2O[C@@H]1CN(C)C(=O)CCN1CCCCC1` the activity change, negative = cytotoxicity was 38.4% (inactive). With `C[C@H]1CN([C@@H](C)CO)C(=O)c2cc(C#Cc3ccccn3)cnc2O[C@H]1CN(C)Cc1ccncc1` the activity change, negative = cytotoxicity was 38.4% (inactive). With `CCCN1C[C@H](C)[C@@H](OC)CN(C)C(=O)c2cc(NC(=O)c3cccc(F)c3)ccc2OC[C@H]1C` the activity change, negative = cytotoxicity was 10.2% (inactive). In the case of `CC(C)COc1ccc(CNC(=S)NCc2ccccc2)cc1`, the activity change, negative = cytotoxicity is reported as -1.46% (inactive). In the case of `O=C(C[C@H]1CC[C@H]2[C@@H](COC[C@@H](O)CN2C(=O)c2ccc(F)cc2)O1)N1CCOCC1`, the activity change, negative = cytotoxicity is reported as -14.1% (inactive). For `COc1cccc(NC(=O)CN2CCN(S(=O)(=O)c3ccc(C(C)C)cc3)CC2)c1`, the activity change, negative = cytotoxicity was 35.1% (inactive). In the case of `COc1ccccc1NC(=S)NCc1ccc(Cl)cc1`, the activity change, negative = cytotoxicity is reported as -4.64% (inactive). With `CCC(C)(C(=O)NC1CCCC1)N(C(C)=O)c1ccc(C)cc1` (centres undefined) the activity change, negative = cytotoxicity was 9.31% (inactive). With `C[C@@H]1CN([C@@H](C)CO)C(=O)c2cc(/C=C/c3ccccc3)cnc2O[C@@H]1CN(C)S(C)(=O)=O` the activity change, negative = cytotoxicity was 10.2% (inactive). For `O=C(C[C@H]1CC[C@@H](NC(=O)c2ccc3c(c2)OCO3)[C@@H](CO)O1)NCc1ccc(F)cc1`, the activity change, negative = cytotoxicity was -2.35% (inactive). For `CO[C@@H]1CN(C)C(=O)c2cc(NC(=O)Nc3cccc(F)c3)ccc2OC[C@H](C)N(C)C[C@@H]1C`, the activity change, negative = cytotoxicity was -0.56% (inactive). In the case of `COc1ccc(CN(C)C[C@@H]2OCCCC[C@@H](C)Oc3ccc(NC(=O)c4ccccc4)cc3C(=O)N([C@H](C)CO)C[C@@H]2C)cc1`, the activity change, negative = cytotoxicity is reported as -11.1% (inactive). With `CC(C)NC(=O)Nc1ccc2c(c1)C(=O)N([C@H](C)CO)C[C@@H](C)[C@H](CN(C)C(=O)Nc1ccccc1)OCCCC[C@@H](C)O2` the activity change, negative = cytotoxicity was 37.7% (inactive). With `C[C@@H]1CN([C@@H](C)CO)C(=O)c2cc(-c3ccc(C#N)cc3)cnc2O[C@@H]1CN(C)C(=O)Nc1ccc(F)cc1` the activity change, negative = cytotoxicity was 5.67% (inactive). With `Cc1ccccc1NC(=O)C(NC1CCCCC1)C(C)C` (centres undefined) the activity change, negative = cytotoxicity was -12.2% (inactive). For `CNC[C@H]1Oc2ccc(NC(=O)Cc3cn(C)c4ccccc34)cc2CC(=O)N([C@@H](C)CO)C[C@H]1C`, the activity change, negative = cytotoxicity was 27% (inactive). With `O=C(CSc1ncnc2c1cnn2-c1ccccc1)Nc1ccc2c(c1)OCO2` the activity change, negative = cytotoxicity was 2.1% (inactive). In the case of `COc1cccc(S(=O)(=O)N2C[C@@H](O)COC[C@H]3O[C@H](CC(=O)Nc4ccccc4)CC[C@@H]32)c1`, the activity change, negative = cytotoxicity is reported as -41.6% (inactive). With `C[C@@H]1CN([C@@H](C)CO)C(=O)CCCn2cc(nn2)CO[C@@H]1CN(C)C(=O)NC1CCCC1` the activity change, negative = cytotoxicity was 5.64% (inactive). For `C[C@H]1CN([C@@H](C)CO)C(=O)Cc2cc(NS(C)(=O)=O)ccc2O[C@@H]1CN(C)Cc1ccc(Cl)c(Cl)c1`, the activity change, negative = cytotoxicity was 11.7% (inactive). With `C[C@H](CO)N1C[C@H](C)[C@H](CN(C)CC2CCCCC2)Oc2c(NS(C)(=O)=O)cccc2C1=O` the activity change, negative = cytotoxicity was 32.2% (inactive). For `C[C@H]1CN([C@@H](C)CO)C(=O)c2cc(-c3ccccc3)cnc2O[C@@H]1CN(C)C(=O)c1ccccn1`, the activity change, negative = cytotoxicity was 19% (inactive). With `C[C@@H]1CN([C@H](C)CO)C(=O)c2cc(-c3ccc(F)cc3)cnc2O[C@H]1CN(C)CC1CCCCC1` the activity change, negative = cytotoxicity was 6.84% (inactive). In the case of `C[C@@H]1CN([C@@H](C)CO)C(=O)c2cc(NS(=O)(=O)c3cn(C)cn3)ccc2O[C@@H](C)CCCCO[C@H]1CN(C)C`, the activity change, negative = cytotoxicity is reported as -1.98% (inactive). In the case of `CCCNC(C)C(=O)Nc1ccccc1C` (centres undefined), the activity change, negative = cytotoxicity is reported as -25.6% (inactive). With `CCC(C)(C(=O)Nc1ccccc1C)N(C(=O)CNC(C)=O)c1ccc(C)cc1` (centres undefined) the activity change, negative = cytotoxicity was -11.7% (inactive). With `CC(C)C#Cc1ccc([C@@H]2[C@H](CO)N3CCCCN(C(=O)c4ccc5c(c4)OCO5)C[C@@H]23)cc1` the activity change, negative = cytotoxicity was 28.2% (inactive). For `Cc1cccc(C)c1NC(=S)NN(Cc1ccccc1)c1ccccc1`, the activity change, negative = cytotoxicity was 15.7% (inactive). With `CO[C@@H]1CN(C)C(=O)c2cc(NS(=O)(=O)c3ccc(C)cc3)ccc2OC[C@@H](C)N(C)C[C@@H]1C` the activity change, negative = cytotoxicity was 5.91% (inactive). In the case of `Cc1cccc(OCC(=O)NCc2ccccc2)c1`, the activity change, negative = cytotoxicity is reported as -36.8% (inactive). In the case of `CC(C)NC(=O)Nc1ccc2c(c1)C(=O)N([C@@H](C)CO)C[C@@H](C)[C@@H](CN(C)C(=O)c1ccncc1)OCCCC[C@@H](C)O2`, the activity change, negative = cytotoxicity is reported as -15.2% (inactive). With `C[C@@H]1CN([C@@H](C)CO)C(=O)Cc2cc(NS(=O)(=O)c3ccccc3)ccc2O[C@@H]1CN(C)Cc1ccc(Cl)c(Cl)c1` the activity change, negative = cytotoxicity was -71.5% (inactive). For `C[C@H]1CCCCO[C@H](CN(C)C(=O)c2ccncc2)[C@@H](C)CN([C@@H](C)CO)C(=O)c2cc(NC(=O)Cc3ccccc3)ccc2O1`, the activity change, negative = cytotoxicity was -3.36% (inactive). In the case of `C[C@@H]1CCCCO[C@@H](CN(C)S(=O)(=O)c2cccs2)[C@H](C)CN([C@@H](C)CO)C(=O)c2cc(NC(=O)CCC(F)(F)F)ccc2O1`, the activity change, negative = cytotoxicity is reported as -7.43% (inactive). With `CCCC#Cc1ccc2c(c1)O[C@@H](CN(C)C)[C@@H](C)CN([C@@H](C)CO)S2(=O)=O` the activity change, negative = cytotoxicity was 13.6% (inactive). For `C[C@H](CO)N1C[C@H](C)[C@@H](CN(C)S(=O)(=O)c2ccccc2)Oc2c(NC(=O)Nc3cccc4ccccc34)cccc2C1=O`, the activity change, negative = cytotoxicity was 35.2% (inactive). With `COc1ccc(NC(=O)N(C)C[C@H]2OCCCC[C@H](C)Oc3ccc(NC(=O)C4CCCCC4)cc3C(=O)N([C@@H](C)CO)C[C@@H]2C)cc1` the activity change, negative = cytotoxicity was -27.2% (inactive). For `CNC[C@@H]1Oc2cc(Br)ccc2S(=O)(=O)N([C@H](C)CO)C[C@H]1C`, the activity change, negative = cytotoxicity was 28.3% (inactive). In the case of `O=c1nc(-c2ccccc2)c2ccccc2[nH]1`, the activity change, negative = cytotoxicity is reported as 1.46% (inactive). For `COCC#Cc1cnc2c(c1)C(=O)N([C@H](C)CO)C[C@H](C)[C@H](CN(C)C(=O)C1CC1)O2`, the activity change, negative = cytotoxicity was -5.58% (inactive). In the case of `CO[C@H]1CC[C@@H]2CCOc3c(C#N)cccc3C(=O)N(C)C[C@H](OC)[C@@H](C)C(=O)N(C)C[C@@H]1O2`, the activity change, negative = cytotoxicity is reported as -0.939% (inactive). For `O=C(NCC[C@H]1CC[C@@H](NS(=O)(=O)c2ccc(F)cc2)[C@H](CO)O1)c1ccc2c(c1)OCO2`, the activity change, negative = cytotoxicity was 1.86% (inactive). In the case of `Cc1ccc(S(=O)(=O)Nc2ccc3c(c2)C(=O)N([C@@H](C)CO)C[C@H](C)[C@H](CN(C)S(=O)(=O)c2ccc(Cl)cc2)OCCCC[C@@H](C)O3)cc1`, the activity change, negative = cytotoxicity is reported as -26.9% (inactive). With `CNC(=O)C[C@@H]1CC[C@@H]2[C@H](COC[C@H](O)CN2S(=O)(=O)c2cccc(Cl)c2)O1` the activity change, negative = cytotoxicity was 3.1% (inactive). In the case of `O=C(C[C@H]1CC[C@H](NC(=O)Nc2ccc(C(F)(F)F)cc2)[C@H](CO)O1)NCc1cccc(F)c1`, the activity change, negative = cytotoxicity is reported as 11.3% (inactive). In the case of `C[C@@H]1CN([C@H](C)CO)C(=O)c2cc(-c3ccc(C#N)cc3)cnc2O[C@@H]1CN(C)C(=O)Nc1ccc(F)cc1`, the activity change, negative = cytotoxicity is reported as -0.869% (inactive). In the case of `COc1ccccc1CNC(=O)C[C@@H]1CC[C@@H]2[C@H](COC[C@@H](O)CN2Cc2ccccc2)O1`, the activity change, negative = cytotoxicity is reported as -10.7% (inactive). For `CNC[C@@H]1OCCCC[C@H](C)Oc2ccc(NC(=O)c3ccccc3)cc2C(=O)N([C@@H](C)CO)C[C@@H]1C`, the activity change, negative = cytotoxicity was 6.33% (inactive). With `CCC(=O)N[C@H]1C=C[C@@H](CC(=O)OC)O[C@@H]1CO` the activity change, negative = cytotoxicity was -29.7% (inactive).

Same assay, conditions: HEK293T viability, ATP luminescence (CellTiter-Glo), 48 h; at 35 µM (top of the series)
For `Cc1cc(C)c(N2CCCC2C(=O)Nc2cccc(C(F)(F)F)c2)c(C)c1` (centres undefined), the activity change, negative = cytotoxicity was -7.11% (inactive).
